Results: the NIST ThermoML archive (doi:10.1021/je200784y)

Conditions: Liquid, Ebulliometric method (Recirculating still)

CCOC(=O)OCC [diethyl carbonate]
Conditions | vapor or sublimation pressure [kPa]
354.68 K | 22.56
357.44 K | 25.03
359.95 K | 27.54
362.26 K | 29.99
364.46 K | 32.51
366.57 K | 35.05
368.45 K | 37.52
370.28 K | 40.03
372.04 K | 42.49
373.73 K | 45.05
375.26 K | 47.47
376.81 K | 50.04
378.22 K | 52.46
379.67 K | 55.03
381.03 K | 57.56
382.32 K | 59.95
383.6 K | 62.52
384.81 K | 64.97
385.98 K | 67.44
387.13 K | 70.02
388.28 K | 72.51
389.32 K | 74.96
390.35 K | 77.43
391.39 K | 79.97
392.45 K | 82.52
393.34 K | 84.84
394.36 K | 87.52
395.23 K | 89.81
396.21 K | 92.53
397.03 K | 94.89
397.96 K | 97.54
398.81 K | 100.03
399.27 K | 101.38
